# Measured values taken from patent publication US20090053168A1, “TREATMENTS OF B-CELL PROLIFERATIVE DISORDERS” (priority 2007, published 2009).
# Values joined by “and” are separate entries in the source; they are usually repeats but may differ in a detail not shown here. Equal entries are not always repeated. Where two headings read alike, the source gives them in different places.
# How the values were obtained:
# RPMI-8226 cells = assay: Anti-proliferation assay (ATPLite, 72 h), RPMI-8226; type: cell-based; conditions: in combination with ADAC; RPMI-8226
# H929 cells = assay: Anti-proliferation assay (ATPLite, 72 h), H929; type: cell-based
# MM.1R cells = assay: Anti-proliferation assay (ATPLite, 72 h), MM.1R; type: cell-based; conditions: in combination with ADAC; MM.1R
# MOLP-8 cells = assay: Anti-proliferation assay (ATPLite, 72 h), MOLP-8; type: cell-based; conditions: in combination with CGS-21680
# OPM2 cells = assay: Anti-proliferation assay (ATPLite, 72 h), OPM2; type: cell-based, human; conditions: in combination with CGS-21680; OPM-8
# EJM cells = assay: Anti-proliferation assay (ATPLite, 72 h), EJM; type: cell-based
# ANBL-6 cells = assay: Anti-proliferation assay (ATPLite, 72 h), ANBL-6; type: cell-based; conditions: in combination with CGS-21680
# KSM-12-PE cells = assay: Anti-proliferation assay (ATPLite, 72 h), KSM-12-PE; type: cell-based
# OCI-ly10 DLBCL cells = assay: Anti-proliferation assay (ATPLite, 72 h), OCI-ly10; type: cell-based; conditions: in combination with CGS-21680
# Karpas 422 DLBCL cells = assay: Anti-proliferation assay (ATPLite, 72 h), Karpas 422; type: cell-based; conditions: in combination with CGS-21680
# SU-DHL6 DLBCL cells = assay: Anti-proliferation assay (ATPLite, 72 h), SU-DHL6; type: cell-based; conditions: in combination with CGS-21680
# [1] = tested on: chronic lymphocytic leukemia (CLL) cells; assay: Apoptosis assay (Hoechst 33342 flow cytometry, 48 h) on patient CLL cells; type: cell-based, human
# Source text: Patients with active infections or other serious medical conditions were not included in this study. Patients with white blood cell counts of less than 15,000/μl by automated analysis were excluded from this study. Whole blood was layered on Ficoll-Hystopaque (Sigma), and peripheral blood mononuclear cells (PBMC) isolated after centrification. […] One million cells were stained with anti-CD5-PE and anti-CD19-PE-Cy5 (Becton […].). The percentage of B-CLL cells was defined as the percentage of cells doubly expressing CD5 and CD19, as determined by flow cytometry. […] Compound master plates were diluted 1:50 into complete media to create working compound dilutions. Compound crosses were then created by diluting two working dilution plates 1:10 into each plate of cells. […] Hoechst 33342 (Molecular Probes, Eugene Oreg.) at a final concentration of 0.25 μg/mL was added to each well and the cells incubated at 37° C. for an additional ten minutes before being placed on ice until analysis. Plates were then analyzed on a LSR-II flow cytometer (Becton Dickenson, Franklin Lakes, N.J.) equipped with the High Throughput Sampling (HTS) option in high throughput mode. […] The apoptotic fraction was calculated using FlowJo software (Tree Star Inc., Ashland, Oreg.) after excluding debris by a FSC/SSC gate and subsequently gating for cells that accumulate the Hoechst dye.
# MM.1S cells [2] = tested on: MM.1S cells
# MM.1S cells [3] = assay: Anti-proliferation assay (ATPLite, 72 h), MM.1S
# [4] = tested on: mantle cell lymphoma cell line Mino; assay: Anti-proliferation assay (ATPLite, 72 h), Mino; type: cell-based, human; conditions: in combination with HE-NECA; Mino
# Procedure: (§1) All of the cell lines were cultured in RPMI-1640 media supplemented with 10% FBS except OCI Ly10 cells (IMDM media supplemented with 20% human serum). The ANBL-6 cell line culture media also contained 10 ng/ml IL-6. MM.1S, MM.1R, SU-DHL6, Karpas 422, and OCI ly10 cells were provided by the Dana Farber Cancer Institute. ANBL-6 cells were provided by Bob Orlowsli (M.D. Anderson Cancer Research Center). H929, RPMI-8226, GA-10, Farage, Mino, JVM-13, Pfeiffer, Toledo, and Kusami-1 cells were from ATCC (Cat #'s CCL-155, CRL-9068, CRL-2392 CRL-2630, CRL-3000, CRL-3003, CRL-2632, CRL-2631, and CRL-2724 respectively). MOLP-8, OPM2, EJM, and KSM-12-PE cells were from DSMZ.
# (§2) Compounds were prepared in DMSO at 1000× the highest desired concentration. Master plates were generated consisting of serially diluted compounds in 2- or 3-fold dilutions in 384-well format. For single agent dose response curves, the master plates consisted of 9 individual compounds at 12 concentrations in 2- or 3-fold dilutions. For combination matrices, master plates consisted of individual compounds at 6 or 9 concentrations at 2- or 3-fold dilutions.
# (§3) The average untreated well value (avg. untreated wells) is the arithmetic mean of 40 wells from the same assay plate treated with vehicle alone. Negative inhibition values result from local variations in treated wells as compared to untreated wells.
# (§4) The uncertainty of each fitted parameter was estimated from the range over which the change in reduced chi-squared was less than one, or less than minimum reduced chi-squared if that minimum exceeded one, to allow for underestimated σI errors.
# (§5) Single agent curve data were used to define a dilution series for each compound to, be used for combination screening in a 6×6 matrix format. […] For compounds with no detectable single agent activity, a dilution factor of 4 was used, starting from the highest achievable concentration.
# (§6) The Loewe additivity model was used to quantify combination effects. Combinations were ranked initially by Additivity Excess Volume, which is defined as ADD Volume=ΣCX, CY(Idata−ILoewe). where ILoewe(CX,CY) is the inhibition that satisfies (CX/ECX)+(CY/ECY)=1, and ECX,Y are the effective concentrations at ILoewe for the single agent curves. A “Synergy Score” was also used, where the Synergy Score S=log fX log fY ΣIdata (Idata−ILoewe), summed over all non-single-agent concentration pairs, and where log fX,Y is the natural logarithm of the dilution factors used for each single agent.
# [5] = tested on: mantle cell lymphoma cell line JVM-13; assay: Anti-proliferation assay (ATPLite, 72 h), JVM-13; type: cell-based, human; conditions: in combination with HE-NECA; JVM-13
# Procedure: as §1, §2, §3, §4, §5, §6
# [6] = tested on: Pfeiffer (diffuse large B cell lymphoma) cells; assay: Anti-proliferation assay (ATPLite, 72 h), Pfeiffer; type: cell-based; conditions: in combination with HE-NECA
# Procedure: as §1, §2
# (§7) The average untreated well value (avg. untreated wells) is the arithmetic mean of 40 wells from the same assay plate treated with vehicle alone. […]
# (§8) The Loewe additivity model was used to quantify combination effects. […]
# [7] = tested on: Kasumi-1 (acute myelogenous leukemia) cells; assay: Anti-proliferation assay (ATPLite, 72 h), Kasumi-1; type: cell-based; conditions: in combination with HE-NECA
# Procedure: as §1, §2, §7, §8
compound,measurement,setting,value
C[C@@H]1C[C@H]2[C@@H]3CCC4=CC(=O)C=C[C@]4(C)[C@@]3(F)[C@@H](O)C[C@]2(C)[C@@]1(O)C(=O)CO [dexamethasone],synergy score,RPMI-8226 cells,4.71
same,synergy score,"H929 cells; in combination with ADAC, H929",7.09
same,synergy score,MM.1R cells,0.33
same,synergy score,MOLP-8 cells,4.86
same,synergy score,OPM2 cells,2.85
same,synergy score,EJM cells; in combination with CGS-21680,5.32
same,synergy score,ANBL-6 cells,1.25
same,synergy score,"KSM-12-PE cells; in combination with CGS-21680, KSM-12-PE",1.27
same,synergy score,OCI-ly10 DLBCL cells,4.21
same,synergy score,Karpas 422 DLBCL cells,4.32
same,synergy score,SU-DHL6 DLBCL cells,4.85
same,Induction of CLL cell apoptosis,"[1]; Patient #1, Dexamethasone 1 nM alone",9.3%
same,Induction of CLL cell apoptosis,"[1]; Patient #1, Dexamethasone 10 nM alone",33%
same,Induction of CLL cell apoptosis,"[1]; Patient #1, Dexamethasone 100 nM alone",56%
same,Induction of CLL cell apoptosis,"[1]; Patient #2, Dexamethasone 8.4 nM alone",8.4%
same,Induction of CLL cell apoptosis,"[1]; Patient #2, Dexamethasone 11 nM alone",11%
same,Induction of CLL cell apoptosis,"[1]; Patient #2, Dexamethasone 36 nM alone",36%
same,Induction of CLL cell apoptosis,"[1]; Patient #2, Dexamethasone 50 nM alone",50%
same,"apoptosis, CLL cells patient 1","[1]; patient 1, 48 hours",33%
same,"apoptosis, CLL cells patient #2","[1]; patient #2, 48 hours",27%
same,inhibition,MM.1S cells [2],47% and 36% and 60% and 48%
same,percent inhibition of cell proliferation,"MM.1S cells [3]; DEX 0.0462 nM, Cl-IB-MECA 0 nM, MM.1S, 72 h",12%
same,percent inhibition of cell proliferation,"MM.1S cells [3]; DEX 0.139 nM alone, listed as DEX",1.8% and 10%
same,percent inhibition of cell proliferation,"MM.1S cells [3]; DEX 0.139 nM, Cl-IB-MECA 0 nM, MM.1S, 72 h",0.78%
same,percent inhibition of cell proliferation,MM.1S cells [3]; DEX 0.416 nM alone,8.3%
same,percent inhibition of cell proliferation,"MM.1S cells [3]; DEX 1.85 nM alone, listed as DEX",14% and 27%
same,percent inhibition of cell proliferation,"MM.1S cells [3]; DEX 1.85 nM, CCPA 0 μM, MM.1S, 72 h",13%
same,percent inhibition of cell proliferation,MM.1S cells [3]; DEX 3.74 nM alone,32%
same,percent inhibition of cell proliferation,"MM.1S cells [3]; DEX 3.74 nM, Cl-IB-MECA 0 nM, MM.1S, 72 h",22%
same,percent inhibition of cell proliferation,"MM.1S cells [3]; DEX 5.56 nM alone, listed as DEX",20% and 30% and 33%
same,percent inhibition of cell proliferation,"MM.1S cells [3]; DEX 5.56 nM, CCPA 0 μM, MM.1S, 72 h",36%
same,percent inhibition of cell proliferation,"MM.1S cells [3]; DEX 11.2 nM alone, listed as DEX",28% and 54%
same,percent inhibition of cell proliferation,"MM.1S cells [3]; DEX 11.2 nM, Cl-IB-MECA 0 nM, MM.1S, 72 h",29%
same,percent inhibition of cell proliferation,"MM.1S cells [3]; DEX 33.7 nM alone, listed as DEX",48% and 64%
same,percent inhibition of cell proliferation,"MM.1S cells [3]; DEX 33.7 nM, Cl-IB-MECA 0 nM, MM.1S, 72 h",56%
same,percent inhibition of cell proliferation,MM.1S cells [3]; DEX 0.0378 μM alone,61%
same,percent inhibition of cell proliferation,"MM.1S cells [3]; DEX 50 nM alone, listed as DEX",55% and 79% and 70%
same,percent inhibition of cell proliferation,"MM.1S cells [3]; DEX 50 nM, CCPA 0 μM, MM.1S, 72 h",72%
same,percent inhibition of cell proliferation,"MM.1S cells [3]; DEX 101 nM alone, listed as DEX",64% and 68%
same,percent inhibition of cell proliferation,"MM.1S cells [3]; DEX 101 nM, Cl-IB-MECA 0 nM, MM.1S, 72 h",67%
same,percent inhibition of cell proliferation,MM.1S cells [3]; DEX 0.113 μM alone,76%
same,percent inhibition of cell proliferation,"MM.1S cells [3]; DEX 150 nM alone, listed as DEX",73% and 87% and 80%
same,percent inhibition of cell proliferation,"MM.1S cells [3]; DEX 150 nM, CCPA 0 μM, MM.1S, 72 h",76%
same,percent inhibition of cell proliferation,MM.1S cells [3]; DEX 303 nM alone,70%
same,percent inhibition of cell proliferation,MM.1S cells [3]; DEX 0.34 μM alone,78%
same,percent inhibition of cell proliferation,MM.1S cells [3]; DEX 1.02 μM alone,82%
same,percent inhibition of cell proliferation,MM.1S cells [3]; DEX 0.0462. nM alone,−2.5%
same,percent inhibition of cell proliferation,MM.1S cells [3]; DEX 0.4.16 nM alone,−5.2%
same,percent inhibition of cell proliferation,"MM.1S cells [3]; DEX 0.4.16 nM, Cl-IB-MECA 0 nM, MM.1S, 72 h",4.5%
same,percent inhibition of cell proliferation,MM.1S cells [3]; DEX 3.74. nM alone,18%
same,percent inhibition of cell proliferation,"MM.1S cells [3]; DEX […], Cl-IB-MECA 0 nM, MM.1S, 72 h",9.7%
same,change in IC50 when cultured in the presence of IL-6,"MM.1S cells [3]; MM.1S, 72 hours, 10 ng/ml IL-6 vs no IL-6",2.9 fold
same,synergy score,"MM.1S cells [3]; in combination with ADAC, MM.1S",1.98
same,synergy score,"MM.1S cells [3]; in combination with CGS-21680, MM.1S",8.06
COC1=C2C[C@@H](C)C[C@H](OC)[C@H](O)[C@@H](C)/C=C(\C)[C@H](OC(N)=O)[C@@H](OC)/C=C\C=C(/C)C(=O)NC(=CC1=O)C2=O [geldanomycin],synergy score,H929 cells,1.82
same,synergy score,EJM cells; in combination with HE-NECA,1.48
same,synergy score,"KSM-12-PE cells; in combination with HE-NECA, KSM-12_PE",1.37
same,synergy score,[4],1.27
same,synergy score,[5],1.84
same,synergy score,[6],2.1
same,synergy score,[7],2.47
same,synergy score,MM.1S cells [3],2.2
